Reference: US20020137929A1, “1 - (3-heterocyclylphenyl) isothiourea, -isourea, -guanidine and -amidine herbicidal agents” (Intellectual Property Department, BASF Aktiengesellschaft, priority 1998, published 2002)

Experiments:
AMBEL (Ragweed, Common) [1] = assay: Postemergence herbicidal evaluation; format: in vivo, Ambrosia artemisifolia; conditions: for AMBEL herbicidal rating: postemergence
Procedure, shortened: (§1)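 Two-week seedlings sprayed postemergence at 40 psi; formulation: 1:1 acetone/water, 0.5% TWEEN 20; application ≈0.0156–0.500 kg/ha. Greenhouse grow-out, then 0–9 visual scoring at 4–5 weeks.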

CASOB (Sicklepod) [2] = assay: Postemergence herbicidal evaluation; format: in vivo, Cassia obtusifolia; conditions: for CASOB herbicidal rating: postemergence
Procedure, shortened: as §1

[3] = system: CHEAL (Lambsquarters, Common); assay: Postemergence herbicidal evaluation; format: in vivo, Chenopodium album; conditions: for CHEAL herbicidal rating: postemergence
Procedure, shortened: as §1

[4] = system: IPOHE (Morningglory, Ivyleaf); assay: Postemergence herbicidal evaluation; format: in vivo, Ipomoea hederacea; conditions: for IPOHE herbicidal rating: postemergence
Procedure, shortened: as §1

ECHCG (Barnyardgrass) = assay: Postemergence herbicidal evaluation; format: in vivo, Echinochloa crus-galli; conditions: for ECHCG herbicidal rating: postemergence
Procedure, shortened: as §1

[5] = system: GLXMAW (Soybean, Williams); assay: Postemergence herbicidal evaluation; format: in vivo, Glycine max, (L.) Merr. cv Williams; conditions: for GLXMAW herbicidal rating: postemergence
Procedure, shortened: as §1

[6] = system: TRZAWR (Wheat, Winter, cv Riband); assay: Postemergence herbicidal evaluation; format: in vivo, Triticum aestivum; conditions: for TRZAWR herbicidal rating: postemergence
Procedure, shortened: as §1

ABUTH (Velvetleaf) = assay: Preemergence herbicidal evaluation; format: in vivo, Abutilon theophrasti; conditions: rated 4-5 weeks after treatment
Procedure, shortened: (§2)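 Visual 0-9 rating vs control (stand, vigor, malformation, size, chlorosis, overall appearance), scored 4-5 wk after spraying. Seeded soil cups were treated preemergence with compound in aqueous acetone, ~0.0156-0.500 kg/ha equivalent.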

AMBEL (Ragweed, Common) [7] = assay: Preemergence herbicidal evaluation; format: in vivo, Ambrosia artemisifolia; conditions: rated 4-5 weeks after treatment
Procedure, shortened: as §2

CASOB (Sicklepod) [8] = assay: Preemergence herbicidal evaluation; format: in vivo, Cassia obtusifolia; conditions: rated 4-5 weeks after treatment
Procedure, shortened: as §2

[9] = system: CHEAL (Lambsquarters, Common); assay: Preemergence herbicidal evaluation; format: in vivo, Chenopodium album; conditions: rated 4-5 weeks after treatment
Procedure, shortened: as §2

[10] = system: IPOHE (Morningglory, Ivyleaf); assay: Preemergence herbicidal evaluation; format: in vivo, Ipomoea hederacea; conditions: rated 4-5 weeks after treatment
Procedure, shortened: as §2

[11] = system: GLXMAW (Soybean, Williams); assay: Preemergence herbicidal evaluation; format: in vivo, Glycine max, (L.) Merr. cv Williams; conditions: rated 4-5 weeks after treatment
Procedure, shortened: as §2

ORYSAT (Rice, Tebonnet) = assay: Preemergence herbicidal evaluation; format: in vivo, Oryza sativa, (L.) Tebonnet; conditions: rated 4-5 weeks after treatment
Procedure, shortened: as §2

MOOVA (Monochoria) = assay: Preemergence weed control under flooded paddy conditions; format: in vivo, Monochoria vaginalis; conditions: rated 3-4 weeks after treatment
Procedure, shortened: (§3)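 Greenhouse paddy assay. Acetone/water (50/50 v/v) solutions dosed into flood water, equivalent to about 0.0313 to 0.500 kg/ha active ingredient, over seeds planted 0.5 cm deep in silt loam. Score: 0-9 visual, based on stand, vigor, malformation, size and chlorosis, 3 to 4 weeks after treatment.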

[12] = system: SAGPY (Arrowhead (Pygmaea)); assay: as above; format: in vivo, Sagittaria pygmaea; conditions: rated 3-4 weeks after treatment
Procedure, shortened: as §3

## C=CCN1C(=O)CSC1=Nc1cc(-n2c(=O)cc(C(F)(F)F)n(C)c2=O)c(F)cc1Cl [Compound 27]
AMBEL (Ragweed, Common) [1]; rate 0.0158 kg/ha
  AMBEL herbicidal rating: 4.0
AMBEL (Ragweed, Common) [1]; rate 0.0315 kg/ha
  AMBEL herbicidal rating: 5.0
AMBEL (Ragweed, Common) [1]; rate 0.0630 kg/ha
  AMBEL herbicidal rating: 7.0
CASOB (Sicklepod) [2]; rate 0.0158 kg/ha
  CASOB herbicidal rating: 1.0
CASOB (Sicklepod) [2]; rate 0.0315 kg/ha
  CASOB herbicidal rating: 1.0
CASOB (Sicklepod) [2]; rate 0.0630 kg/ha
  CASOB herbicidal rating: 1.0
[3]; rate 0.0158 kg/ha
  CHEAL herbicidal rating: 6.0
[3]; rate 0.0315 kg/ha
  CHEAL herbicidal rating: 6.0
[3]; rate 0.0630 kg/ha
  CHEAL herbicidal rating: 9.0
[4]; rate 0.0158 kg/ha
  IPOHE herbicidal rating: 9.0
[4]; rate 0.0315 kg/ha
  IPOHE herbicidal rating: 9.0
[4]; rate 0.0630 kg/ha
  IPOHE herbicidal rating: 9.0
ECHCG (Barnyardgrass); rate 0.0158 kg/ha
  ECHCG herbicidal rating: 2.0
ECHCG (Barnyardgrass); rate 0.0315 kg/ha
  ECHCG herbicidal rating: 2.0
ECHCG (Barnyardgrass); rate 0.0630 kg/ha
  ECHCG herbicidal rating: 1.0
[5]; rate 0.0158 kg/ha
  GLXMAW herbicidal rating: 6.0
[5]; rate 0.0315 kg/ha
  GLXMAW herbicidal rating: 6.5
[5]; rate 0.0630 kg/ha
  GLXMAW herbicidal rating: 7.5
[6]; rate 0.0158 kg/ha
  TRZAWR herbicidal rating: 3.0
[6]; rate 0.0315 kg/ha
  TRZAWR herbicidal rating: 4.0
[6]; rate 0.0630 kg/ha
  TRZAWR herbicidal rating: 4.5
ABUTH (Velvetleaf); rate 0.0156 kg/ha
  Preemergence herbicidal rating ABUTH: 7.0
ABUTH (Velvetleaf); rate 0.0313 kg/ha
  Preemergence herbicidal rating ABUTH: 9.0
ABUTH (Velvetleaf); rate 0.0625 kg/ha
  Preemergence herbicidal rating ABUTH: 9.0
ABUTH (Velvetleaf); rate 0.1250 kg/ha
  Preemergence herbicidal rating ABUTH: 9.0
ABUTH (Velvetleaf); rate 0.2500 kg/ha
  Preemergence herbicidal rating ABUTH: 9.0
AMBEL (Ragweed, Common) [7]; rate 0.0156 kg/ha
  Preemergence herbicidal rating AMBEL: 0.0
AMBEL (Ragweed, Common) [7]; rate 0.0313 kg/ha
  Preemergence herbicidal rating AMBEL: 2.0
AMBEL (Ragweed, Common) [7]; rate 0.0625 kg/ha
  Preemergence herbicidal rating AMBEL: 2.0
AMBEL (Ragweed, Common) [7]; rate 0.1250 kg/ha
  Preemergence herbicidal rating AMBEL: 9.0
AMBEL (Ragweed, Common) [7]; rate 0.2500 kg/ha
  Preemergence herbicidal rating AMBEL: 7.0
CASOB (Sicklepod) [8]; rate 0.0156 kg/ha
  Preemergence herbicidal rating CASOB: 0.0
CASOB (Sicklepod) [8]; rate 0.0313 kg/ha
  Preemergence herbicidal rating CASOB: 0.0
CASOB (Sicklepod) [8]; rate 0.0625 kg/ha
  Preemergence herbicidal rating CASOB: 0.0
CASOB (Sicklepod) [8]; rate 0.1250 kg/ha
  Preemergence herbicidal rating CASOB: 0.0
CASOB (Sicklepod) [8]; rate 0.2500 kg/ha
  Preemergence herbicidal rating CASOB: 0.0
[9]; rate 0.0156 kg/ha
  Preemergence herbicidal rating CHEAL: 0.0
[9]; rate 0.0313 kg/ha
  Preemergence herbicidal rating CHEAL: 9.0
[9]; rate 0.0625 kg/ha
  Preemergence herbicidal rating CHEAL: 9.0
[9]; rate 0.1250 kg/ha
  Preemergence herbicidal rating CHEAL: 9.0
[9]; rate 0.2500 kg/ha
  Preemergence herbicidal rating CHEAL: 9.0
[10]; rate 0.0156 kg/ha
  Preemergence herbicidal rating IPOHE: 0.0
[10]; rate 0.0313 kg/ha
  Preemergence herbicidal rating IPOHE: 0.0
[10]; rate 0.0625 kg/ha
  Preemergence herbicidal rating IPOHE: 8.0
[10]; rate 0.1250 kg/ha
  Preemergence herbicidal rating IPOHE: 9.0
[10]; rate 0.2500 kg/ha
  Preemergence herbicidal rating IPOHE: 9.0
[11]; rate 0.0156 kg/ha
  Preemergence herbicidal rating GLXMAW: 0.0
[11]; rate 0.0313 kg/ha
  Preemergence herbicidal rating GLXMAW: 0.0
[11]; rate 0.0625 kg/ha
  Preemergence herbicidal rating GLXMAW: 9.0
[11]; rate 0.1250 kg/ha
  Preemergence herbicidal rating GLXMAW: 9.0
[11]; rate 0.2500 kg/ha
  Preemergence herbicidal rating GLXMAW: 7.0
ORYSAT (Rice, Tebonnet); rate 0.0156 kg/ha
  Preemergence herbicidal rating ORYSAT: 0.0
ORYSAT (Rice, Tebonnet); rate 0.0313 kg/ha
  Preemergence herbicidal rating ORYSAT: 0.0
ORYSAT (Rice, Tebonnet); rate 0.0625 kg/ha
  Preemergence herbicidal rating ORYSAT: 3.0
ORYSAT (Rice, Tebonnet); rate 0.1250 kg/ha
  Preemergence herbicidal rating ORYSAT: 3.0
ORYSAT (Rice, Tebonnet); rate 0.2500 kg/ha
  Preemergence herbicidal rating ORYSAT: 8.0
MOOVA (Monochoria); 0.0313 kg/ha
  Herbicidal rating MOOVA: 9.0
MOOVA (Monochoria); 0.0625 kg/ha
  Herbicidal rating MOOVA: 9.0
MOOVA (Monochoria); 0.1250 kg/ha
  Herbicidal rating MOOVA: 9.0
MOOVA (Monochoria); 0.2500 kg/ha
  Herbicidal rating MOOVA: 9.0
[12]; 0.0313 kg/ha
  Herbicidal rating SAGPY: 0.0
[12]; 0.0625 kg/ha
  Herbicidal rating SAGPY: 0.0
[12]; 0.1250 kg/ha
  Herbicidal rating SAGPY: 4.0
[12]; 0.2500 kg/ha
  Herbicidal rating SAGPY: 4.0

## COC(=O)CCN1C(=O)CSC1=Nc1cc(-n2c(=O)cc(C(F)(F)F)n(C)c2=O)c(F)cc1Cl [Compound 28, Methyl 2-{{2-chloro-5-[3,6-dihydro-3-methyl-2,6-dioxo-4-(trifluoromethyl)-1(2H)-pyrimidinyl]-4-fluorophenyl}imino}-4-oxo-3-thiazolidinepropionate]
AMBEL (Ragweed, Common) [1]; Rate 0.0158 kg/ha
  Postemergence herbicidal rating AMBEL: 4.0
AMBEL (Ragweed, Common) [1]; Rate 0.0315 kg/ha
  Postemergence herbicidal rating AMBEL: 4.0
AMBEL (Ragweed, Common) [1]; Rate 0.0630 kg/ha
  Postemergence herbicidal rating AMBEL: 9.0
CASOB (Sicklepod) [2]; Rate 0.0158 kg/ha
  Postemergence herbicidal rating CASOB: 1.0
CASOB (Sicklepod) [2]; Rate 0.0315 kg/ha
  Postemergence herbicidal rating CASOB: 1.0
CASOB (Sicklepod) [2]; Rate 0.0630 kg/ha
  Postemergence herbicidal rating CASOB: 4.0
[3]; Rate 0.0158 kg/ha
  Postemergence herbicidal rating CHEAL: 2.0
[3]; Rate 0.0315 kg/ha
  Postemergence herbicidal rating CHEAL: 4.0
[3]; Rate 0.0630 kg/ha
  Postemergence herbicidal rating CHEAL: 4.0
[4]; Rate 0.0158 kg/ha
  Postemergence herbicidal rating IPOHE: 9.0
[4]; Rate 0.0315 kg/ha
  Postemergence herbicidal rating IPOHE: 9.0
[4]; Rate 0.0630 kg/ha
  Postemergence herbicidal rating IPOHE: 9.0
ECHCG (Barnyardgrass); Rate 0.0158 kg/ha
  Postemergence herbicidal rating ECHCG: 0.0
ECHCG (Barnyardgrass); Rate 0.0315 kg/ha
  Postemergence herbicidal rating ECHCG: 5.0
ECHCG (Barnyardgrass); Rate 0.0630 kg/ha
  Postemergence herbicidal rating ECHCG: 9.0
[5]; Rate 0.0158 kg/ha
  Postemergence herbicidal rating GLXMAW: 6.5
[5]; Rate 0.0315 kg/ha
  Postemergence herbicidal rating GLXMAW: 8.0
[5]; Rate 0.0630 kg/ha
  Postemergence herbicidal rating GLXMAW: 8.5
[6]; Rate 0.0158 kg/ha
  Postemergence herbicidal rating TRZAWR: 5.0
[6]; Rate 0.0315 kg/ha
  Postemergence herbicidal rating TRZAWR: 5.0
[6]; Rate 0.0630 kg/ha
  Postemergence herbicidal rating TRZAWR: 6.5
ABUTH (Velvetleaf); rate 0.1250 kg/ha
  Preemergence herbicidal rating ABUTH: 3.0
ABUTH (Velvetleaf); rate 0.2500 kg/ha
  Preemergence herbicidal rating ABUTH: 9.0
AMBEL (Ragweed, Common) [7]; rate 0.0625 kg/ha
  Preemergence herbicidal rating AMBEL: 0.0
AMBEL (Ragweed, Common) [7]; rate 0.1250 kg/ha
  Preemergence herbicidal rating AMBEL: 0.0
AMBEL (Ragweed, Common) [7]; rate 0.2500 kg/ha
  Preemergence herbicidal rating AMBEL: 7.0
CASOB (Sicklepod) [8]; rate 0.0625 kg/ha
  Preemergence herbicidal rating CASOB: 0.0
CASOB (Sicklepod) [8]; rate 0.1250 kg/ha
  Preemergence herbicidal rating CASOB: 0.0
CASOB (Sicklepod) [8]; rate 0.2500 kg/ha
  Preemergence herbicidal rating CASOB: 0.0
[9]; rate 0.0625 kg/ha
  Preemergence herbicidal rating CHEAL: 0.0
[9]; rate 0.1250 kg/ha
  Preemergence herbicidal rating CHEAL: 9.0
[9]; rate 0.2500 kg/ha
  Preemergence herbicidal rating CHEAL: 9.0
[10]; rate 0.0625 kg/ha
  Preemergence herbicidal rating IPOHE: 0.0
[10]; rate 0.1250 kg/ha
  Preemergence herbicidal rating IPOHE: 2.0
[10]; rate 0.2500 kg/ha
  Preemergence herbicidal rating IPOHE: 9.0
[11]; rate 0.0625 kg/ha
  Preemergence herbicidal rating GLXMAW: 3.0
[11]; rate 0.1250 kg/ha
  Preemergence herbicidal rating GLXMAW: 5.0
[11]; rate 0.2500 kg/ha
  Preemergence herbicidal rating GLXMAW: 9.0
ORYSAT (Rice, Tebonnet); rate 0.0625 kg/ha
  Preemergence herbicidal rating ORYSAT: 0.0
ORYSAT (Rice, Tebonnet); rate 0.1250 kg/ha
  Preemergence herbicidal rating ORYSAT: 2.0
ORYSAT (Rice, Tebonnet); rate 0.2500 kg/ha
  Preemergence herbicidal rating ORYSAT: 8.0
MOOVA (Monochoria); 0.0313 kg/ha
  Herbicidal rating MOOVA: 9.0
MOOVA (Monochoria); 0.0625 kg/ha
  Herbicidal rating MOOVA: 9.0
MOOVA (Monochoria); 0.1250 kg/ha
  Herbicidal rating MOOVA: 9.0
MOOVA (Monochoria); 0.2500 kg/ha
  Herbicidal rating MOOVA: 9.0
[12]; 0.0313 kg/ha
  Herbicidal rating SAGPY: 0.0
[12]; 0.0625 kg/ha
  Herbicidal rating SAGPY: 0.0
[12]; 0.1250 kg/ha
  Herbicidal rating SAGPY: 0.0
[12]; 0.2500 kg/ha
  Herbicidal rating SAGPY: 0.0
